Structures can show the parent of a compound that is named as a salt. Where two headings read alike, the source gives them in different places.
System: Acinetobacter baumannii ATCC17961
Assay: Antimicrobial susceptibility testing: 90% growth inhibitory concentration (IC90) determination in Iso-Sensitest broth, OD600 growth
Assay type: cell-based
Conditions: Acinetobacter baumannii, ATCC17961, 16 h
Outline: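 Growth inhibition is calculated during the logarithmic phase from OD600 readings taken every 20 minutes across 16 h at 35±2° C. Bacteria at ~5×10^(5) CFU/ml face twofold dilution series (e.g. 50 to 0.097 μM final).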

[1] = strain ATCC 17961, OD600 growth over 16 h, read-out: A. baumannii ATCC 17961 IC90
[2] = read-out: A. baumannii ATCC 17961 IC90 (uM), strain ATCC 17961, OD600 growth over 16 h

Row | IC90 [1] [µM] | SMILES | IC90 [2] [µM]
1 | 0.136 | N#CCn1cc(-c2cnc3c(Nc4ccc(C(=O)N5CCN(C(=O)CN)CC5)c(Cl)c4)nccn23)c(C(F)(F)F)n1 [Example 132, 2-[4-[8-[4-[4-(2-aminoacetyl)piperazine-1-carbonyl]-3-chloroanilino]imidazo[1,2-a]pyrazin-3-yl]-3-(trifluoromethyl)pyrazol-1-yl]acetonitrile] | –
2 | 0.117 | N#CCn1cc(-c2cnc3c(Nc4ccc(C(=O)N5CCN(C(=O)[C@H]6[C@@H]7CNC[C@@H]76)CC5)c(Cl)c4)nccn23)c(C(F)(F)F)n1 [Example 481, 2-(4-(8-((4-(4-((1R,5S,6r)-3-azabicyclo[3.1.0]hexane-6-carbonyl)piperazine-1-carbonyl)-3-chlorophenyl)amino)imidazo[1,2-a]pyrazin-3-yl)-3-(trifluoromethyl)-1H-pyrazol-1-yl)acetonitrile formate] | –
3 | 0.152 | CCc1cc(Nc2nccn3c(-c4c[nH]nc4C(F)(F)F)cnc23)ccc1C(=O)NCCCCCCN [Example 336, N-(6-aminohexyl)-2-ethyl-4-[[3-[3-(trifluoromethyl)-1H-pyrazol-4-yl]imidazo[1,2-a]pyrazin-8-yl]amino]benzamide hydrochloride] | –
4 | 0.311 | CCc1cc(Nc2nccn3c(-c4cn(CC(F)F)nc4C(F)(F)F)cnc23)ccc1C(=O)NCCOC[C@H](C)N [Example 153, N-[2-[(2S)-2-aminopropoxy]ethyl]-4-[[3-[1-(2,2-difluoroethyl)-3-(trifluoromethyl)pyrazol-4-yl]imidazo[1,2-a]pyrazin-8-yl]amino]-2-ethylbenzamide] | –
5 | 0.306 | C=CCn1cc(-c2cnc3c(Nc4ccc(C(=O)N5CCN(C(=O)C6CCNCC6)CC5)c(CC)c4)nccn23)c(C(F)(F)F)n1 [Example 64, [2-ethyl-4-[[3-[1-prop-2-enyl-3-(trifluoromethyl)pyrazol-4-yl]imidazo[1,2-a]pyrazin-8-yl]amino]phenyl]-[4-(piperidine-4-carbonyl)piperazin-1-yl]methanone] | –
6 | 0.147 | O=C(c1ccc(Nc2nccn3c(-c4cn(CC(F)F)nc4C(F)(F)F)cnc23)cc1Cl)N1CCN(C(=O)[C@H]2[C@@H]3CNC[C@@H]32)CC1 [Example 519, (4-((1R,5S,6r)-3-azabicyclo[3.1.0]hexane-6-carbonyl)piperazin-1-yl)(2-chloro-4-((3-(1-(2,2-difluoroethyl)-3-(trifluoromethyl)-1H-pyrazol-4-yl)imidazo[1,2-a]pyrazin-8-yl)amino)phenyl) methanone formate] | –
7 | 0.354 | C#CCNC(=O)c1c(C)cc(Nc2nccn3c(-c4cn(CCF)nc4C(F)(F)F)cnc23)cc1F [Example 42, 2-fluoro-4-[[3-[1-(2-fluoroethyl)-3-(trifluoromethyl)pyrazol-4-yl]imidazo[1,2-a]pyrazin-8-yl]amino]-6-methyl-N-prop-2-ynylbenzamide] | –
8 | 0.693 | CCc1cc(Nc2nccn3c(-c4c[nH]nc4C(F)(F)F)cnc23)ccc1C(=O)NCCCNC(=O)[C@H](C)NC(=O)C(F)(F)F [Example 759, (S)-2-ethyl-N-(3-(2-(2,2,2-trifluoroacetamido)propanamido)propyl)-4-((3-(3-(trifluoromethyl)-1H-pyrazol-4-yl)imidazo[1,2-a]pyrazin-8-yl)amino) benzamide] | –
9 | 1.85 | CCc1cc(Nc2nccn3c(-c4cn(CCF)nc4C(F)F)cnc23)ccc1C(=O)N1CCN(C(=O)C2(O)CCNCC2)CC1 [Example 791, (4-(4-((3-(3-(difluoromethyl)-1-(2-fluoroethyl)-1H-pyrazol-4-yl)imidazo[1,2-a]pyrazin-8-yl)amino)-2-ethylbenzoyl)piperazin-1-yl)(4-hydroxypiperidin-4-yl)methanone] | –
10 | 0.159 | C[C@H](N)C(=O)N1CCN(C(=O)c2ccc(Nc3nccn4c(-c5cn(CC#N)nc5C(F)(F)F)cnc34)cc2Cl)CC1 [Example 187, 2-[4-[8-[4-[4-[(2S)-2-aminopropanoyl]piperazine-1-carbonyl]-3-chloroanilino]imidazo[1,2-a]pyrazin-3-yl]-3-(trifluoromethyl)pyrazol-1-yl]acetonitrile] | –
11 | 0.46 | CCc1cc(Nc2nccn3c(-c4cn(CC#N)nc4Cl)cnc23)ccc1C(=O)NCCOCCN [Example 833, N-(2-(2-aminoethoxy)ethyl)-4-((3-(3-chloro-1-(cyanomethyl)-1H-pyrazol-4-yl)imidazo[1,2-α]pyrazin-8-yl)amino)-2-ethylbenzamide] | –

Second part, the compound before the results:

Row | SMILES | IC90 [1] [µM] | IC90 [2] [µM]
12 | O=C(NC1CCCN(C(=O)[C@H]2C[C@H](O)CN2)C1)c1ccc(Nc2nccn3c(-c4c[nH]nc4C(F)(F)F)cnc23)cc1Cl (mixture of isomers) [Example 387, 2-chloro-N-[1-[rac-(2R,4S)-4-hydroxypyrrolidine-2-carbonyl]piperidine-3-yl]-4-[[3-[3-(trifluoromethyl)-1H-pyrazol-4-yl]imidazo[1,2-a]pyrazin-8-yl]amino]benzamide] | 4.84 | –
13 | CCc1cc(Nc2nccn3c(-c4c[nH]nc4C(F)(F)F)cnc23)ccc1C(=O)NCC1CNC1 [Example 513, N-(azetidin-3-ylmethyl)-2-ethyl-4-((3-(3-(trifluoromethyl)-1H-pyrazol-4-yl)imidazo[1,2-a]pyrazin-8-yl)amino)benzamide formate] | – | 0.15
14 | CCc1cc(Nc2nccn3c(-c4cn(CC#N)nc4C(F)(F)F)cnc23)ccc1C(=O)NCC(=O)N[C@@H]1CCNC1 [Example 757, 4-[[3-[1-(cyanomethyl)-3-(trifluoromethyl)pyrazol-4-yl]imidazo[1,2-a]pyrazin-8-yl]amino]-2-ethyl-N-[2-oxo-2-[[(3R)-pyrrolidin-3-yl]amino]ethyl]benzamide formate] | – | 0.689
15 | CCc1cc(Nc2nccn3c(-c4cn(CC(F)F)nc4C(F)(F)F)cnc23)ccc1C(=O)NCCOCCCN [Example 618, N-(2-(3-aminopropoxy)ethyl)-4-((3-(1-(2,2-difluoroethyl)-3-(trifluoromethyl)-1H-pyrazol-4-yl)imidazo[1,2-a]pyrazin-8-yl)amino)-2-ethylbenzamide formate] | – | 0.129
16 | Cc1cc(Nc2nccn3c(-c4cn(C)nc4C(F)(F)F)cnc23)ccc1C(=O)N1CCN(C(=O)[C@H]2CCNC[C@@H]2O)CC1 [Example 478, formic acid; [4-[(3R,4S)-3-hydroxypiperidine-4-carbonyl]piperazin-1-yl]-[2-methyl-4-[[3-[1-methyl-3-(trifluoromethyl)pyrazol-4-yl]imidazo[1,2-a]pyrazin-8-yl]amino]phenyl]methanone] | – | 3.46
17 | CCc1cc(Nc2nccn3c(-c4cn(CC=C(C)C)nc4C(F)(F)F)cnc23)ccc1C(=O)NCCOCCN [Example 614, N-(2-(2-aminoethoxy)ethyl)-2-ethyl-4-((3-(1-(3-methylbut-2-en-1-yl)-3-(trifluoromethyl)-1H-pyrazol-4-yl)imidazo[1,2-a]pyrazin-8-yl)amino)benzamide formate] | – | 0.11
18 | CCc1cc(Nc2nccn3c(-c4c[nH]nc4C(F)(F)F)cnc23)ccc1C(=O)NCCOCCCN [Example 613, N-(2-(3-aminopropoxy)ethyl)-2-ethyl-4-((3-(3-(trifluoromethyl)-1H-pyrazol-4-yl)imidazo [1,2-a]pyrazin-8-yl)amino)benzamide formate] | – | 0.105
19 | CNC(=O)c1ccc(Nc2nccn3c(-c4cn(Cc5cccc(CCN)c5)nc4C(F)(F)F)cnc23)cc1Cl [Example 595, 4-((3-(1-(3-(2-aminoethyl)benzyl)-3-(trifluoromethyl)-1H-pyrazol-4-yl)imidazo[1,2-a]pyrazin-8-yl)amino)-2-chloro-N-methylbenzamide formate] | – | 0.186

Reference: patent US20230203043A1, “NOVEL IMIDAZOPYRAZINE DERIVATIVES” (Hoffmann-La Roche Inc., priority 2020, published 2023)
